Experimental findings from patent US20250008983A1, “COMPOSITIONS CONTAINING PEROXYACIDS TO CONTROL PATHOGEN GROWTH IN ANIMAL FEED AND RELATED METHODS” (KEMIN INDUSTRIES, INC., priority 2023, published 2025) are described below.

Values after ≈ are worked out from the molar mass of the structure shown. Like-named read-outs stand apart in the source and are kept apart here.

What all share (assay type): cell-based
Assay [1] relates to Salmonella enterica isolated from layer feed. Put plainly: Preliminary in vitro feed assay, Salmonella count in contaminated feed over 21 days. Conditions: 15 kg/ton. Here is the method:
(§1) Preparation of the treatment. Perpropionic acid, peracetic acid, mixture of peroctanoic acid and perdecanoic acid (PC8/PC10) and Sal CURB products were used without any further dilution or mixing. The peroxy mix was prepared by mixing peracetic and perpropionic acid in 1:1 weight ratio. Briefly, 1.0 g of peroxy mix was prepared by weighing 0.5 g of peracetic acid into 0.5 g of perpropionic acid. The mixture was mixed well prior to usage. Similar procedure was followed in the preparation of 3% sulphuric acid (where […] of water) and peroxy mix with ester (where 0.9 g of peroxy mix (prepared with peracetic and propionic acid) was mixed with 0.1 g of propylene glycol propionate esters). […] Briefly, 1 mL of 75% phosphoric acid was added to 10 mL of Pro-Oxine solution and mixed well. The mixture is covered and let to stand for 10 mins prior to usage.
(§2) Preparation of stock feed inoculum. The researchers prepared contaminated feed from known methods, where Salmonella enterica isolated from layer feed was revived from the glycerol stock by plating a loopful of culture onto the TSAYE (i.e., tryptone soya agar supplemented with 0.6% yeast extract (CM0131B; Oxoid) prepared as per recommended) and incubate for 18-24 hours at 37° C. Following which, the colonies were collected aseptically with saline solution (i.e., 0.9% sodium chloride (V800372; Sigma-Aldrich) prepared in deionized water), yielding approximately 5 mL of biomass suspension. The biomass suspension was diluted accordingly to meet the contamination level required for the stock inoculum. No dilution was required for high contamination level of ca. 10^7 cfu/g whereas biomass suspension was diluted 1000 times to achieve lower contamination level of ca. 10^4 cfu/g in the stock inoculum. The stock feed inoculum was prepared by adding the biomass suspension (5 mL) into 100 g of sterile feed (made up with 7:3 ground corn and soybean, autoclaved at 121° C. for one hour and dried for 24 hours at 65° C.) with a syringe and needle, and homogenously mixed after. The stock feed inoculum was stored at 25° C. for a week. Salmonella count of the stock inoculum was determined using conventional plating method with XLD agar (i.e., Xylose lysine deoxycholate (CM0469B; Oxoid)) and BPW (i.e., buffered peptone water (CM0509B; Oxoid)) prior to usage. Briefly, three grams of stock feed inoculum was weighed into a 50 mL conical tube, diluted with 27 mL of BPW, homogenously mixed and left to stand for 30 minutes. The feed suspension was then serial diluted to the appropriate dilutions. An aliquot of 0.1 mL of the feed suspension was plated onto the agar at each dilution and incubated at 37° C. for 18-24 hours prior to enumeration. Plating was carried out in triplicates. Blank stock feed was prepared by adding 5 mL of saline into 100 g of sterile feed.
(§3) Preparation of the feed inoculum. The stock feed inoculum was diluted approximately 100 times with sterile feed where three grams of stock inoculum was added into 307 g of sterile feed and kept at 37° C. for 24 hours. The Salmonella count of the feed was determined prior to treatment. Briefly, 90 mL of BPW was added into 10 g of feed sample in a sterile bag (10^−1 dilution). The mixture was homogenously mixed with a stomacher at medium speed for three minutes and left to stand for 30 minutes. The feed supernatant was serial diluted to appropriate dilutions for plating. The plates were incubated at 37° C. for 18-24 hours prior to counting. If low Salmonella count was expected, the sample size was increased to 1 mL by plating 300, 300 and 400 uL onto three plates in triplicates for […] detection limit (10 cfu/g). Blank feed was prepared by adding three grams of blank stock feed into 307 g of sterile feed. In addition, an extra contaminated feed was prepared as a control.
(§4) Treatment of contaminated feed. […]

The test system is the same in assay [2]. Nature of the assay: In vitro feed assay, high Salmonella contamination level (~5 log cfu/g). Particulars: 10.0 kg/ton. Here is the method: as §1, §2, §3, §4
The subject of assay [3] is Escherichia coli ATCC 25922. Nature of the assay: Minimum inhibitory concentration (MIC), broth microdilution. Conditions: Escherichia coli. Here is the method:
Materials and Methods. The assay was conducted to determine the minimum inhibitory concentration (MIC) of peroxy-acids against Escherichia coli ATCC 25922. E. coli was purchased from American Type Culture Collection (ATCC). The strain was stored at −80° C. in glycerol. Prior to usage, E. coli was revived by streaking a loopful of culture onto TSAYE (i.e., tryptone soya agar yeast extract (CM0131 and LP0021; Oxoid) prepared as per recommended by Oxoid) with overnight incubation at 37° C. An overnight culture of E. coli was diluted in TSBYE (i.e, tryptone soya broth yeast extract (CM0129; Oxoid) prepared as per recommended by Oxoid) to obtain a cell suspension of ca. 10^5 CFU/mL. Subsequently, 100 μL of the diluted culture was added to 100 μL of the test solutions at the needed concentrations into a microtiter plate (92096; TPP Techno Plastic Products AG). Peroxy-acids were tested at an active concentration of 25-1600 μg/mL. Subsequently, the inoculated plate was incubated at 37° C. up to 48 hours with the bacterial cell density recorded at optical density (OD) 600 nm at 24 hours interval using a microplate reader (Varioskan LUX; Thermo Fisher).

The subject of the next assay is Enterobacteriaceae. As to the method: Materials and Method. Naturally contaminated layer feed was collected, ground, and mixed well prior to weighing. The ground feed was weighed and separated into 15 different bags, each containing 300 g. The product/prototype was accurately weighed at the needed dosage and adjusted to a total volume of 5 mL prior to adding into the 300 g of feed with a syringe and needle. Product/prototype was added in batches (i.e., 2, 2, and 1 mL separately) and mixed after each addition. Five mL of sterile water was added into the feed and served as the control. The treated feed samples were homogenized after treatment and kept at 25° C. until the day of enumeration.
TEC of the 15 samples were studied over a period of 22 days with enumeration interval at time points 0, 1 and 22 days. The effect of peroxy acid was neutralized at each time point prior to enumeration. At each time point, 20 mL of 0.1 M sodium thiosulphate was added into 10 g of each treated feed sample in a sterile bag. The mixture was mixed well and left to stand for 10 minutes. After 10 minutes, 70 mL of BPW was added to achieve 10^−1 dilution. The feed suspension was homogenously mixed and left to stand for 30 minutes. Subsequently, the feed suspension was serial diluted to appropriate dilutions for enumeration. 100 uL of the diluted samples were plated onto Violet Red Bile Glucose (VRBG; CM0485 from Oxoid) agar, prepared as per recommended by the supplier. An aliquot of 0.1 mL of the feed suspension was plated onto the agar at each dilution and incubated at 37° C. for 18-24 hours prior to enumeration. Plating was carried out in triplicates. If low TEC is expected, the sample size is increased to 1 mL by plating 300, 300 and 400 uL onto three plates in triplicates for lower detection limit (10 CFU/g). The diluted feed samples (at 10^−1 dilution factor) were kept at 37° C. for 18-24 hours for enrichment prior to streaking. A loopful of diluted feed suspension was streaked onto the VRBG agar and incubated at 37° C. for 18-24 hours to determine qualitatively the presence of Enterobacteriaceae for samples with undetectable TEC.

On to `O=S(=O)(O)O` [3% w/w sulphuric acid, sulphuric acid], for which, in assay [1] (over the 21 days), the Salmonella killing effect entry is on record as “No Salmonella killing effect”. The Salmonella count in assay [1] (post-treatment Day 1) came out at 5.80 log cfu/g; in assay [1] (post-treatment Day 6) it was 5.02 log cfu/g; in assay [1] (post-treatment Day 21) it was 4.82 log cfu/g; in assay [1] (pre-treatment Day 0), 5.59 log cfu/g.
Take `CC(=O)OO` [Peracetic acid, peracetic acid]: the Salmonella count in assay [1] (pre-treatment Day 0) is 5.63 log cfu/g; in assay [2] (post-treatment Day 1), 2.01 log cfu/g; in assay [2] (post-treatment Day 2), “BD (Salmonella count is below detection limit (1 log cfu/g))”; in assay [2] (post-treatment Day 3), “BD (Salmonella count is below detection limit (1 log cfu/g))”; in assay [2] (post-treatment Day 6) it was 2.11 log cfu/g; in assay [2] (post-treatment Day 14), “BD (Salmonella count is below detection limit (1 log cfu/g))”. Moreover, the Salmonella count in assay [2] (post-treatment Day 21) is 1.12 log cfu/g; in assay [2] (pre-treatment Day 0), 5.98 log cfu/g. The MIC came to 300 µg/mL (≈ 3.94 mM) in assay [3] (ATCC25922, preliminary results, read-out: MIC) and 300 µg/mL (≈ 3.94 mM) in assay [3] (ATCC25922, no increment in OD over 48 hours, 37° C., read-out: Minimum inhibitory concentration (μg/mL) against E. coli). Also, the TEC is listed as less than 1.00 log CFU/g with Enterobacteriaceae (2.5 kg/ton, post treatment Day 1); 3.32 log CFU/g in the assay on Enterobacteriaceae (2.5 kg/ton, post treatment Day 22); 3.37 log CFU/g with Enterobacteriaceae (2.5 kg/ton, pre-treatment Day 0); 2.39 log CFU/g with Enterobacteriaceae (5.0 kg/ton, post treatment Day 1); less than 1.00 log CFU/g in the assay with Enterobacteriaceae (5.0 kg/ton, post treatment Day 22); less than 2.00 log CFU/g in the assay on Enterobacteriaceae (5.0 kg/ton, pre-treatment Day 0). The TEC in the assay on Enterobacteriaceae (10.0 kg/ton, post treatment Day 1) is reported as 1.43 log CFU/g; in the assay on Enterobacteriaceae (10.0 kg/ton, post treatment Day 22), less than 1.00 log CFU/g; with Enterobacteriaceae (10.0 kg/ton, pre-treatment Day 0) it was 2.52 log CFU/g.
